{"source": "patent US20190125735A1", "about": "“INHIBITION OF P38 MAPK FOR THE TREATMENT OF CANCER” (Board of Regents, The University of Texas System, priority 2015, published 2019)", "key": {"[1]": {"tested_on": "HMLE-Snail, HMLE-Twist, MDA-MB-231 and SUM159 cells", "test": "EMT marker immunoblotting in mesenchymal mammary cells", "type": "cell-based, human", "conditions": "relative to vehicle-treated cells", "method": "It was next ascertained whether p38 inhibition compromises the maintenance of the established EMT phenotype.\n(§1) Immunoblotting and immunofluorescence (Mani et al., 2008) were performed as previously described. Primary antibodies were as follows: β-actin (Sigma, St Louis, Mo., USA; A3853), mouse anti-human FOXC2 (Dr. Naoyuki Miura, Hamamatsu University School of Medicine, Japan), goat polyclonal anti-FOXC2 (Santa Cruz Biotechnology, Dallas, Tex., USA; sc-21397), p-p38 (Cell Signaling, Danvers, Mass., USA; 4511), p38 (Cell Signaling; 9211), E-cadherin (BD Biosciences, San Jose, Calif., USA; 61081), fibronectin (BD Biosciences; 610077), vimentin (Novus Biologicals, Littleton, Colo., USA; NB200-623), ZEB1 (Novus Biologicals; NBP1-05987), and HA (Covance, Princeton, N.J., USA; MMS-101P)."}, "HMLE-Snail-ER cells": {"tested_on": "HMLE-Snail-ER cells", "test": "4-OHT inducible EMT in HMLE-Snail-ER cells, immunoblotting", "type": "cell-based, human", "conditions": "HMLE-Snail-ER concurrently exposed to 4-OHT and SB203580", "method": "To ascertain whether inhibiting p38 impedes the initiation of EMT, two dynamic models of EMT induction were utilized. First, MCF10A immortalized human mammary epithelial cells were treated with TGFβ1 which elicits EMT. […] Second, an inducible EMT system was used wherein a fusion protein, comprising the EMT-inducing transcription factors Snail or Twist and the estrogen-binding domain of the estrogen receptor (ER), is stably expressed in epithelial HMLE cells (HMLE-Snail-ER, HMLE-Twist-ER). Addition of the ER-ligand tamoxifen (4-OHT) promotes nuclear translocation of the Snail-ER and Twist-ER proteins and elicits EMT. […] Similarly, p38 shRNA abolished the capacity of HMLE-Twist-ER cells to undergo EMT (FIG. 4E, compare lanes 4 to 8) and to form spheres (FIG. 16F) in response to 4-OHT treatment.\nImmortalized human mammary epithelial (HMLE) cells expressing empty vector (pWZL), Snail, Twist, Goosecoid (GSC), or an activated form of TGFβ1, V12H-Ras-transformed HMLE (HMLER) and HMLER-FOXC2 cells were maintained as previously described (Elenbaas et al., 2001) For 4-hydroxy-tamoxifen (4-OHT) treatment, HMLE-Snail-ER or HMLE-Twist-ER cells were exposed to 20 nM 4-OHT for the indicated number of days. MCF7, MDA-MB-231 and SUM159 human breast cancer cells and the 4T1 mouse mammary carcinoma cells were cultured as described. […]"}, "ZEB1": {"tested_on": "ZEB1", "test": "ZEB1 mRNA and protein levels (qRT-PCR, immunoblotting)", "type": "cell-based, human", "from_the_text": "First, the elevated levels of FOXC2 and ZEB1 transcripts were confirmed in HMLER-FOXC2 cells versus HMLER-vector cells by qRT-PCR (FIG. 19A). […] Accordingly, shRNA-mediated suppression of FOXC2 in a panel of cell lines yielded a >50-fold decrease in ZEB1 mRNA (FIG. 19E) and a >80% reduction in ZEB1 protein levels (FIG. 19F). […] Conversely, a >50-fold increase as found in miR-200b, and a >1000-fold increase in miR-200c, following FOXC2 knockdown compared to control shRNA-transduced counterparts (FIG. 19H). To ascertain whether FOXC2 directly regulates miR-200 or ZEB1 expression, the promoter regions of both miR-200 clusters on chromosomes 1 and 12 as well as the ZEB1 promoter were analyzed, and a conserved FOXC2-binding element within the ZEB1 promoter was identified. […] Furthermore, in support of the notion that p38-mediated phosphorylation of FOXC2 regulates ZEB1 expression, elevated ZEB1 protein levels were only detected in HMLER-FOXC2 and HMLER-FOXC2(S367E) cells (FIG. 19L, lanes 2 and 3), but not in HMLER-FOXC2(S367A) cells (FIG. 19L, lane 4).\nas §1\nqRT-PCR was performed using SYBR Green (Applied Biosystems, Waltham, Mass., USA) for mRNAs and Taqman (Applied Biosystems) for microRNAs as described previously (Hollier et al., 2013)."}, "Foxc2": {"tested_on": "Foxc2", "test": "Foxc2/FOXC2 protein immunoblotting in 4T1 cells", "type": "cell-based, mouse"}, "mesenchymal cells": {"tested_on": "mesenchymal cells", "test": "Scratch/wound-healing assay of mesenchymal mammary cells", "type": "cell-based, human", "from_the_text": "The effects of p38 inhibition on invasive potential, which strongly correlates with the formation of invadopodia, was investigated. These specialized actin-based cell membrane protrusions secrete matrix metalloproteinases, enabling degradation of the nearby extracellular matrix (Eckert et al., 2011). The formation of invadopodia was quantified by assessing the ability of cells to degrade FITC-conjugated gelatin.\nQuantification of invadopodia (Eckert et al., 2011), scratch/wound-healing assays (Sarkar et al., 2015) fluorescence-activated cell sorting (FACS), and sphere-formation assays (Mani et al., 2008) were conducted as described previously."}}, "data": [{"smiles": "C[S+]([O-])c1ccc(-c2nc(-c3ccc(F)cc3)c(-c3ccncc3)[nH]2)cc1", "note": "(stereo not drawn) [SB203580, 4-(4-Fluorophenyl)-2-(4-methylsulfinylphenyl)-5-(4-pyridyl) 1H-imidazole]", "values": [{"measurement": "Expression of EMT markers", "setting": "[1]", "value": "altered the expression of EMT markers"}, {"measurement": "EMT and FOXC2 upregulation", "setting": "HMLE-Snail-ER cells", "value": "failed to undergo EMT or upregulate FOXC2"}, {"measurement": "ZEB1 protein levels", "setting": "ZEB1; HMLER-FOXC2(S367E) cells", "value": "remained relatively high"}, {"measurement": "ZEB1 protein levels", "setting": "ZEB1; HMLER-FOXC2 cells", "value": "decreased"}, {"measurement": "Reduction of ZEB1 mRNA and protein levels compared to vehicle", "setting": "ZEB1; SB203580 treatment", "value": "> 60", "unit": "fold"}, {"measurement": "Phosphomimetic FOXC2(S367E) levels", "setting": "Foxc2; 4T1-FOXC2(S367E) cells", "value": "remained unaltered"}, {"measurement": "Endogenous Foxc2 protein levels", "setting": "Foxc2; 4T1 cells, 24 h", "value": "significant reduction of endogenous Foxc2 protein levels"}, {"measurement": "Endogenous Foxc2 protein levels", "setting": "Foxc2; vector-transduced 4T1 cells", "value": "abolished endogenous Foxc2 protein levels"}, {"measurement": "Migratory capacity", "setting": "mesenchymal cells", "value": "markedly reduced the migratory capacity of mesenchymal cells"}]}]}
